Data taken from patent US10660318B2, “Non-mammalian RAS transgenic animal model” (Tosk, Inc., priority 2013, dated 2020).

Test system: mutated kRAS/kRAS x MS1096 fly (human kRAS G12V expressed in the wing)
Assay: Screening for drugs that reverse the wing phenotype of the mutated kRAS/kRAS x MS1096 fly
Format: in vivo, Drosophila
Conditions: for rescue from the crumpled/kringled wing phenotype: 10 μM test article in fly food, embryos to adults, 25° C., 14 days, FIG. 8
Protocol: Male mutated kRAS/kRAS flies were bred overnight with female MS1096/GAL4 flies in a fly condo^2 with a grape agar plate floor. The resulting embryos were gently dislodged from the grape agar plate using a squirt bottle containing 0.7% NaCl, 0.03% Triton X-100 In distilled water. The embryos were counted and then dissolved in a solution containing 14.4% sucrose, 0.7% NaCl and 0.05% Triton to give a concentration of 15 embryos/10 μL of solution. ^2 Sullivan W, Ashburner M, Hawley, S R, Drosophila Protocols 2000, Cold Spring Harbor Laboratory Press, pp 541-551.
The test article, 1-benzyl-2-phenyl-1H-benzo[d]imidazole which is a deltarasin analog with activity againsy RAS signaling,^1 was dissolved in DMSO to give a concentration of 10 mM. The deltarasin analog inhibitor was synthesized at the Tosk facility. Four μL of this solution, 100 μL of the embryo solution (150 embryos), ½ teaspoon blue fly food (North Carolina, catalogue number 173216) and 4 ml of water were combined in a vial (VWR, catalogue number 89092-720) and capped (VWR, catalogue number 89168-886). Using the recipe provided above, the final concentration of test article in the mixture was 10 μM.
The vials were placed in a 25° C. incubator for 14 days after which they. were examined for the percentage of flies with crumpled/kringled wings. […] The goal for screening chemicals for anti-kRAS activity is to achieve in the kRAS mutant fly the rescue from the crumpled/kringled wing phenotype achieved with the deltarasin analog.

[1] = flies rescued by treatment with a test article, compared with control and kRAS mutant flies

c1ccc(Cn2c(-c3ccccc3)nc3ccccc32)cc1 [test article, 1-benzyl-2-phenyl-1H-benzo[d]imidazole]
rescue from the crumpled/kringled wing phenotype: significantly less crumpled/kringled although still non-functional | rescue from the crumpled/kringled wing phenotype (listed as deltarasin analog): rescued | typical appearance of wings: vein-free region (Rescued) (compared with the same regions in kRAS mutant flies): Vein-free region is considerably | ability to take flight (Rescued) [1]: Unable to take flight | typical appearance of wings: position relative to fly body in idle state (Rescued) [1]: Wings tend to be parallel to the fly | typical appearance of wings: size and shape (Rescued) [1]: Medium, semi-flat and less crinkled | typical appearance of wings: transparency (Rescued) [1]: Slightly translucent wings | typical appearance of wings: wing veins (Rescued) [1]: Slightly aberrant wing “veins.”
